According to PMC8159961, “Exploring protein hotspots by optimized fragment pharmacophores” (Nature Communications, 2021):

Experiments:
human 5-HT1A receptor = molecular target: T1, human 5-HT1A receptor (Homo sapiens, UniProt P08908); experiment: GPCR radioligand binding assay, [3H]-8-OH-DPAT displacement, HEK293 membranes; conditions: for 5-HT1A % Inhibition by plate position: 10 µM; for %inh 5-HT1A average: average of exp_1 and exp_2; for %inh 5-HT1A exp_1: replicate exp_1; for %inh 5-HT1A exp_2: replicate exp_2; for %inh 5-HT1A corrected*: average, values below 0 and above 100% were set as 0 and 100
T1 construct: expressed in transfected cells
T1 sequence (P08908 1-422): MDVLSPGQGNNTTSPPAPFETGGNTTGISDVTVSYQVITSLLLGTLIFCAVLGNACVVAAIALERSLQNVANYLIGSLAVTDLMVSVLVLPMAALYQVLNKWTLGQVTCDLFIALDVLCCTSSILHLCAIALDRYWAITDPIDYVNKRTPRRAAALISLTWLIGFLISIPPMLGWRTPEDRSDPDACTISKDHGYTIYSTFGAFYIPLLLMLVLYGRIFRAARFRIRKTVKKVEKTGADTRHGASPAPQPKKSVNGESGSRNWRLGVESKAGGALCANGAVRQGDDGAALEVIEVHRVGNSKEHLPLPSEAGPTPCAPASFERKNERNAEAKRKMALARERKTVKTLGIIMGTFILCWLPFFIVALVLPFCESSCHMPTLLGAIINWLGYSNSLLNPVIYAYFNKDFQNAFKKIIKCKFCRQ

human 5-HT6 receptor = molecular target: T2, human 5-HT6 receptor (Homo sapiens, UniProt P50406); experiment: GPCR radioligand binding assay, [3H]-LSD displacement, HEK293 membranes; conditions: for 5-HT6 % Inhibition by plate position: 10 µM; for %inh 5-HT6 average: average of exp_1 and exp_2; for %inh 5-HT6 corrected*: average, values below 0 and above 100% were set as 0 and 100; for %inh 5-HT6 exp_1: replicate exp_1; for %inh 5-HT6 exp_2: replicate exp_2
T2 construct: expressed in transfected cells
T2 sequence (P50406 whole entry): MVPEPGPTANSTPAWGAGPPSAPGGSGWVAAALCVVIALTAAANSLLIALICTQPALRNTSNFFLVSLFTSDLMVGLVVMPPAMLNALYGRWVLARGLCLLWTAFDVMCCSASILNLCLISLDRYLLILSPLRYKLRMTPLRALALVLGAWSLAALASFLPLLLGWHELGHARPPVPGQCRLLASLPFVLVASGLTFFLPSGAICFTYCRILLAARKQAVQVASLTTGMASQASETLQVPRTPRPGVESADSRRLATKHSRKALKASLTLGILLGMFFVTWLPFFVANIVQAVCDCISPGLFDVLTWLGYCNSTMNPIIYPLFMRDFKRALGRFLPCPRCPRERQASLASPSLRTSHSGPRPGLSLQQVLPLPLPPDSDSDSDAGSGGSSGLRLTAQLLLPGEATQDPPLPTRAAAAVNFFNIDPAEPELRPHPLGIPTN

human 5-HT7b receptor = molecular target: T3, human 5-HT7b receptor (Homo sapiens, UniProt P34969); experiment: GPCR radioligand binding assay, [3H]-5-CT displacement, HEK293 membranes; conditions: for 5-HT7 % Inhibition by plate position: 10 µM; for %inh 5-HT7 exp_1: replicate exp_1; for %inh 5-HT7 exp_2: replicate exp_2; for %inh 5-HT7 average: average of exp_1 and exp_2
T3 construct: expressed in transfected cells
T3 sequence (P34969 1-432): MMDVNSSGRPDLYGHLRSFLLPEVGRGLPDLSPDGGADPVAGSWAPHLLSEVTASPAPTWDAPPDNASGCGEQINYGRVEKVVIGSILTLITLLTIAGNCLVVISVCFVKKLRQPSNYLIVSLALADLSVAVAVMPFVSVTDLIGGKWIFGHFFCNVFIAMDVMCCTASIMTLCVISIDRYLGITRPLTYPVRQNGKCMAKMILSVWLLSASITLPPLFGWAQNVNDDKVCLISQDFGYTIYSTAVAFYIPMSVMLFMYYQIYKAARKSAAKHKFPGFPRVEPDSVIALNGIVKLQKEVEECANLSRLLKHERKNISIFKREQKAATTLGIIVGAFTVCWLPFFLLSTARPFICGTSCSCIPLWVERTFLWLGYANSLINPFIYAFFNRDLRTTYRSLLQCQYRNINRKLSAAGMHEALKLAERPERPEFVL

| SMILES | 5-HT1A % Inhibition by plate position (human 5-HT1A receptor) | %inh 5-HT1A average (human 5-HT1A receptor) | %inh 5-HT1A exp_1 (human 5-HT1A receptor) | %inh 5-HT1A exp_2 (human 5-HT1A receptor) | 5-HT6 % Inhibition by plate position (human 5-HT6 receptor) | %inh 5-HT6 average (human 5-HT6 receptor) | %inh 5-HT6 corrected* (human 5-HT6 receptor) | %inh 5-HT6 exp_1 (human 5-HT6 receptor) | %inh 5-HT6 exp_2 (human 5-HT6 receptor) | 5-HT7 % Inhibition by plate position (human 5-HT7b receptor) | %inh 5-HT7 exp_1 (human 5-HT7b receptor) | %inh 5-HT7 exp_2 (human 5-HT7b receptor) | %inh 5-HT1A corrected* (human 5-HT1A receptor) | %inh 5-HT7 average (human 5-HT7b receptor) |
| --- | --- | --- | --- | --- | --- | --- | --- | --- | --- | --- | --- | --- | --- | --- |
| Oc1nnc(-c2ccccc2)o1 [F7] | 0% | -4% | 1.6% | -10% | 14% | 14% | 14% | 15% | 14% | 1% | -12% | 14% | – | – |
| Cc1nccn1Cc1cccc(C#N)c1 [F8] | – | 10% | 7% | 13% | 41% | 41% | 41% | 40% | 42% | 9% | 14% | 3.57% | 10% | – |
| CC(CN)N1CCc2sccc2C1 (centres unmarked) [F9] | – | 33% | 30% | 36% | 15% | 15% | 15% | 14% | 17% | 8% | 13% | 3.54% | 33% | – |
| NCC1(c2ccccc2)CCOCC1 [F10] | – | 11% | 10% | 12% | 23% | 23% | 23% | 20% | 25% | 6% | -0.903% | 13% | 11% | – |
| Oc1cnc(-c2ccccc2)nc1 [F11] | – | 6.48% | 14% | -1.43% | 41% | 41% | 41% | 42% | 39% | 0.572% | -8% | 9% | 6.48% | – |
| Cc1cc(C)c2c(=O)[nH]n(C)c2n1 [F12] | – | 5.64% | 4.73% | 6.55% | 34% | 34% | 34% | 35% | 32% | 11% | 14% | 7% | 5.64% | – |
| COc1ccc(C2=CCNCC2)cc1 [G1] | – | 17% | 14% | 20% | 49% | 49% | 49% | 49% | 49% | 19% | 17% | 20% | 17% | – |
| Cn1c(CO)nc2ccccc21 [G2] | 0% | -5% | 12% | -22% | 37% | 37% | 37% | 37% | 38% | 5% | 10% | 0.167% | – | – |
| CN(C)c1cc(CN)ccn1 [G3] | – | 11% | 13% | 10% | 16% | 16% | 16% | 16% | 16% | 0% | -1.11% | -35% | 11% | -18% |
| O=C(NC1CC1)c1ccccc1O [G4] | – | 1.71% | 3.42% | 0% | 24% | 24% | 24% | 28% | 20% | 0% | 1.81% | -25% | 1.71% | -12% |
| c1ccc2sc(N3CCNCC3)nc2c1 [G5] | – | 83% | 78% | 88% | 42% | 42% | 42% | 49% | 35% | 28% | 32% | 25% | 83% | – |
| O=C(O)C1CCCN(C(=O)N2CCCC2)C1 (centres unmarked) [G6] | – | 5% | 1% | 9% | 27% | 27% | 27% | 29% | 25% | 8.53% | 10% | 7% | 5% | – |
| O=C1CCN(c2ccncc2)CC1 [G7] | – | 0.831% | -1.88% | 3.54% | 7% | 7% | 7% | 7.61% | 7% | 3.28% | -1.58% | 8% | 0.831% | – |
| O=C1CCN(c2ccccn2)CC1 [G8] | 0% | -7% | 4% | -18% | 7% | 7% | 7% | 0% | 15% | 29% | 34% | 24% | – | – |
